Source: ChEMBL document CHEMBL5338715, “Identification of (S)-1-(2-(2,4-difluorophenyl)-4-oxothiazolidin-3-yl)-3-(4-((7-(3-(4-ethylpiperazin-1-yl)propoxy)-6-methoxyquinolin-4-yl)oxy)-3,5-difluorophenyl)urea as a potential anti-colorectal cancer agent” (Eur J Med Chem, 2022)
Activity calls are given as the source filed them. The rule behind the calls is not given here.

How the values were obtained:
[1] = Cytotoxicity against human FHC cells assessed as cell growth inhibition by MTT assay; format: toxicity, cell-based
[2] = Metabolic stability in human liver microsomes assessed as half life at 1 uM measured upto 45 mins in presence of NADPH by LC-MS/MS analysis; format: ADME, Microsome
[3] = Metabolic stability in human liver microsomes assessed as intrinsic clearance at 1 uM measured upto 45 mins in presence of NADPH by LC-MS/MS analysis; format: ADME, Microsome; details: read-out: CLH
[4] = Metabolic stability in human liver microsomes assessed as parent compound remaining at 1 uM measured after 45 mins in presence of NADPH by LC-MS/MS analysis; format: ADME, Microsome; details: read-out: Stability
BaF3 [5] = test: cells; details: Mus musculus, BaF3, 72 h
BaF3 [6] = test: cells; details: Mus musculus, BaF3, 72 h; remark: listed apart in the source
HT-29 = test: cells; details: Homo sapiens
HCT-116 = test: cells; details: Homo sapiens
EBC-1 = test: cells; details: Homo sapiens
NCI-H1993 = test: cells; details: Homo sapiens
COLO 205 [7] = test: cells; details: Homo sapiens
LoVo = test: cells; details: Homo sapiens
SNU-5 = test: cells; details: Homo sapiens
MKN-45 = test: cells; details: Homo sapiens
[8] = target: Hepatocyte growth factor receptor (Homo sapiens, UniProt P08581); test: Inhibition of c-Met (unknown origin)
Sequence of Hepatocyte growth factor receptor (P08581 whole entry): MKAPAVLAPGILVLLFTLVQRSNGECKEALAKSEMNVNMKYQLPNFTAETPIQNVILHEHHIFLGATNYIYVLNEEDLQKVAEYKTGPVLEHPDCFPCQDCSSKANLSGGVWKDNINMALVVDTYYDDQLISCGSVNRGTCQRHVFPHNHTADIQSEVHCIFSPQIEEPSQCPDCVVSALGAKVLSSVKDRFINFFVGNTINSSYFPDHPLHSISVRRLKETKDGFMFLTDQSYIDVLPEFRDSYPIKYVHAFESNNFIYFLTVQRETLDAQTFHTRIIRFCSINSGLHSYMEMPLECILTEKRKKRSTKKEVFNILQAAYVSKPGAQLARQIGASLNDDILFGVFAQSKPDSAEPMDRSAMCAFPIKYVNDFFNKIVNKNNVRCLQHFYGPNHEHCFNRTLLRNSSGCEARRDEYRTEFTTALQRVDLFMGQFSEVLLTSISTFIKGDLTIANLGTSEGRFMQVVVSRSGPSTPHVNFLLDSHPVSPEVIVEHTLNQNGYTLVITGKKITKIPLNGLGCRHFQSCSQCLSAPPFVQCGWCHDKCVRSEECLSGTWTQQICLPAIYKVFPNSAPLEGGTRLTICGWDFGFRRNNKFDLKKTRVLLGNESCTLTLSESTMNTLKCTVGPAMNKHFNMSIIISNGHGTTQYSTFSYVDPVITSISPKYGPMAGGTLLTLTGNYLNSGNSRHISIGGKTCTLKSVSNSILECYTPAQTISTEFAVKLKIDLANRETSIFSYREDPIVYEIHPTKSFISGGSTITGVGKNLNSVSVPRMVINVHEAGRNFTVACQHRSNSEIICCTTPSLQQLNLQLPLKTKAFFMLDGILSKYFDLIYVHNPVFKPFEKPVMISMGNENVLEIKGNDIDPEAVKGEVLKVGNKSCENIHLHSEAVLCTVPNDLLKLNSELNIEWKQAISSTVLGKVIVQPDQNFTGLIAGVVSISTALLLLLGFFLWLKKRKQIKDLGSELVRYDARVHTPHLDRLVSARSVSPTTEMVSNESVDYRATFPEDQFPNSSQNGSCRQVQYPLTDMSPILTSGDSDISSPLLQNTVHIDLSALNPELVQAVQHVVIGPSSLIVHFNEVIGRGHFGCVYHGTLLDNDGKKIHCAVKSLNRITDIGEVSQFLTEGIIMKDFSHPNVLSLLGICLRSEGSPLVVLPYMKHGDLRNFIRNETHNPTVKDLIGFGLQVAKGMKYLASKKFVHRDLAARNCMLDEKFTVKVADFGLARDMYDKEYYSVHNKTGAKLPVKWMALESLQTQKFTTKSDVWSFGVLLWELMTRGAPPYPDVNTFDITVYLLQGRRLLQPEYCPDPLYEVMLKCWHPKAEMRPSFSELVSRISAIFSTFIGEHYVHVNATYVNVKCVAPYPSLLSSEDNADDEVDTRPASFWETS

COLO 205 [9] = test: Induction of apoptosis in human COLO 205 cells assessed as viable cells at 0.037 uM incubated for 72 hrs by Annexin FITC-A staining based flow cytometry (reference value: 78.7 %); format: functional; details: read-out: Activity
COLO 205 [10] = test: Induction of apoptosis in human COLO 205 cells assessed as early apoptotic cells at 0.037 uM incubated for 72 hrs by Annexin FITC-A staining based flow cytometry (reference value: 2.54 %); format: functional
COLO 205 [11] = test: Induction of apoptosis in human COLO 205 cells assessed as late apoptotic cells at 0.037 uM incubated for 72 hrs by Annexin FITC-A staining based flow cytometry (reference value: 9.15 %); format: functional
COLO 205 [12] = test: Induction of apoptosis in human COLO 205 cells assessed as necrotic cells at 0.037 uM incubated for 72 hrs by Annexin FITC-A staining based flow cytometry (reference value: 9.65 %); format: functional
COLO 205 [13] = test: Induction of apoptosis in human COLO 205 cells assessed as viable cells at […] incubated for 72 hrs by Annexin FITC-A staining based flow cytometry (reference value: 78.7 %); format: functional; details: dose 0.11 µM, read-out: Activity
COLO 205 [14] = test: Induction of apoptosis in human COLO 205 cells assessed as early apoptotic cells at […] incubated for 72 hrs by Annexin FITC-A staining based flow cytometry (reference value: 2.54 %); format: functional; details: dose 0.11 µM
COLO 205 [15] = test: Induction of apoptosis in human COLO 205 cells assessed as late apoptotic cells at […] incubated for 72 hrs by Annexin FITC-A staining based flow cytometry (reference value: 9.15 %); format: functional; details: dose 0.11 µM
COLO 205 [16] = test: Induction of apoptosis in human COLO 205 cells assessed as necrotic cells at […] incubated for 72 hrs by Annexin FITC-A staining based flow cytometry (reference value: 9.65 %); format: functional; details: dose 0.11 µM
COLO 205 [17] = test: Induction of apoptosis in human COLO 205 cells assessed as viable cells at 0.33 uM incubated for 72 hrs by Annexin FITC-A staining based flow cytometry (reference value: 78.7 %); format: functional; details: read-out: Activity
COLO 205 [18] = test: Induction of apoptosis in human COLO 205 cells assessed as early apoptotic cells at 0.33 uM incubated for 72 hrs by Annexin FITC-A staining based flow cytometry (reference value: 2.54 %); format: functional
COLO 205 [19] = test: Induction of apoptosis in human COLO 205 cells assessed as late apoptotic cells at 0.33 uM incubated for 72 hrs by Annexin FITC-A staining based flow cytometry (reference value: 9.15 %); format: functional
COLO 205 [20] = test: Induction of apoptosis in human COLO 205 cells assessed as necrotic cells at 0.33 uM incubated for 72 hrs by Annexin FITC-A staining based flow cytometry (reference value: 9.65 %); format: functional
COLO 205 [21] = test: Induction of apoptosis in human COLO 205 cells assessed as viable cells at 1 uM incubated for 72 hrs by Annexin FITC-A staining based flow cytometry (reference value: 78.7 %); format: functional; details: read-out: Activity
COLO 205 [22] = test: Induction of apoptosis in human COLO 205 cells assessed as early apoptotic cells at 1 uM incubated for 72 hrs by Annexin FITC-A staining based flow cytometry (reference value: 2.54 %); format: functional
COLO 205 [23] = test: Induction of apoptosis in human COLO 205 cells assessed as late apoptotic cells at 1 uM incubated for 72 hrs by Annexin FITC-A staining based flow cytometry (reference value: 9.15 %); format: functional
COLO 205 [24] = test: Induction of apoptosis in human COLO 205 cells assessed as necrotic cells at 1 uM incubated for 72 hrs by Annexin FITC-A staining based flow cytometry (reference value: 9.65 %); format: functional
COLO 205 [25] = test: Induction of cell cycle arrest in human COLO 205 cells assessed as accumulation at G1 phase at 0.037 uM incubated for 24 hrs by flow cytometry (reference value: 47.9 %); format: functional
COLO 205 [26] = test: Induction of cell cycle arrest in human COLO 205 cells assessed as accumulation at S phase at 0.037 uM incubated for 24 hrs by flow cytometry (reference value: 40.8 %); format: functional
COLO 205 [27] = test: Induction of cell cycle arrest in human COLO 205 cells assessed as accumulation at G2 phase at 0.037 uM incubated for 24 hrs by flow cytometry (reference value: 6.8 %); format: functional
COLO 205 [28] = test: Induction of cell death in human COLO 205 cells at 0.11 to 1 uM incubated for 24 hrs by flow cytometry; format: functional, cell-based; details: dose 0.11-1 µM

In the case of `CCN1CCN(CCCOc2cc3nccc(Oc4c(F)cc(NC(=O)NN5C(=O)CSC5c5ccccc5F)cc4F)c3cc2OC)CC1` (stereo not given), the IC50 [1] is reported as greater than 10 µM, the half-life at 1 µM [2] is reported as 2.17 h and the CLint scaled at 1 µM [3] is reported as 13.3 mL/min/kg. It also gave a remaining at 0.75 h, 1 µM [4] of 78.2%, an IC50 (BaF3 [5]) of 0.053 µM and an IC50 (BaF3 [6]) of 0.088 µM. It also gave an IC50 (HT-29) of 0.11 µM, an IC50 (HCT-116) of 0.14 µM and an IC50 (EBC-1) of 0.23 µM. The IC50 (NCI-H1993) was 2.3 µM, the IC50 (COLO 205 [7]) was 0.063 µM and the IC50 (LoVo) was 1.3 µM. For the same compound, the IC50 (SNU-5) was 0.88 µM and the IC50 (MKN-45) was 2.3 µM.

With `CCN(CC)CCCOc1cc2nccc(Nc3ccc(NC(=O)NN4C(=O)CSC4c4c(F)cccc4F)cc3)c2cc1OC` (stereo not given) the IC50 (BaF3 [5]) was 2.1 µM, the IC50 (BaF3 [6]) was 4.5 µM and the IC50 (HT-29) was 5.5 µM. For the same compound, the IC50 (HCT-116) was greater than 10 µM.

`CCN1CCN(CCCOc2cc3nccc(Oc4c(F)cc(NC(=O)NN5C(=O)CSC5c5ccccc5)cc4F)c3cc2OC)CC1` (stereo not given) showed an IC50 (BaF3 [5]) of 0.14 µM, an IC50 (BaF3 [6]) of 0.26 µM and an IC50 (HT-29) of 0.14 µM. For the same compound, the IC50 (HCT-116) was 0.21 µM.

For `CCN(CC)CCCOc1cc2nccc(Oc3ccc(CC(=O)NN4C(=O)CSC4c4c(F)cccc4F)cc3)c2cc1OC` (stereo not given), the IC50 (BaF3 [5]) was 1.3 µM, the IC50 (BaF3 [6]) was 2.6 µM and the IC50 (HT-29) was 1.6 µM. It also gave an IC50 (HCT-116) of 7.8 µM.

With `CCN(CC)CCCOc1cc2nccc(Oc3ccc(NC(=O)NN4C(=O)CSC4c4c(F)cccc4F)cc3OC)c2cc1OC` (stereo not given) the IC50 (BaF3 [5]) was 0.11 µM, the IC50 (BaF3 [6]) was 0.16 µM and the IC50 (HT-29) was 0.68 µM. The IC50 (HCT-116) was 0.2 µM.

With `COc1cc2c(Oc3ccc(NC(=O)NN4C(=O)CSC4c4c(F)cccc4F)cc3)ccnc2cc1OCCCN1CCCC1` (stereo not given) the IC50 (BaF3 [5]) was 0.066 µM, the IC50 (BaF3 [6]) was 0.15 µM and the IC50 (HT-29) was 0.16 µM. The IC50 (HCT-116) was 0.81 µM.

In the case of `O=C(Nc1ccc(Oc2ccnc3c2CCN3)c(F)c1)c1c[nH]cc(-c2ccc(F)cc2)c1=O`, the IC50 [8] is reported as 0.006 µM.

For `O=c1ccc2ccc(O)cc2o1` [UMBELLIFERONE], the half-life at 1 µM [2] was 0.1 h, the CLint scaled at 1 µM [3] was 289 mL/min/kg and the remaining at 0.75 h, 1 µM [4] was 0.8%.

Compound `C[C@]12CC[C@H]3[C@@H](CCC4=CC(=O)CC[C@@]43C)[C@@H]1CC[C@@H]2O` [TESTOSTERONE] has a half-life at 1 µM [2] of 0.177 h, a CLint scaled at 1 µM [3] of 164 mL/min/kg and a remaining at 0.75 h, 1 µM [4] of 8.1%.

With `CNC(=O)c1cc(Oc2ccc(NC(=O)Nc3ccc(Cl)c(C(F)(F)F)c3)c(F)c2)ccn1` [REGORAFENIB] the IC50 (HT-29) was 8.6 µM and the IC50 (HCT-116) was 3.5 µM.

`COc1cc2nccc(Oc3c(F)cc(NC(=O)NN4C(=O)CSC4c4c(F)cccc4F)cc3F)c2cc1OC` (stereo not given) gave an IC50 (BaF3 [5]) of 0.17 µM, an IC50 (BaF3 [6]) of 0.65 µM and an IC50 (HT-29) of 4.1 µM. The IC50 (HCT-116) was greater than 10 µM.

For `CCN1CCN(CCCOc2cc3nccc(Oc4c(F)cc(NC(=O)NN5C(=O)CS[C@H]5c5ccc(F)cc5F)cc4F)c3cc2OC)CC1`, the IC50 [1] was greater than 10 µM, the half-life at 1 µM [2] was 2.83 h and the viability at 0.037 µM (COLO 205 [9]) was 63.4%. The Activity (COLO 205 [10]) was 6.59%, the Activity (COLO 205 [11]) was 24.8% and the Activity (COLO 205 [12]) was 5.23%. The viability at […] (COLO 205 [13]) was 23.1%, the Activity (COLO 205 [14]) was 6.29% and the Activity (COLO 205 [15]) was 47.9%. For the same compound, the Activity (COLO 205 [16]) was 22.7%, the viability at 0.33 µM (COLO 205 [17]) was 15.4% and the Activity (COLO 205 [18]) was 5.19%. It also gave an Activity (COLO 205 [19]) of 54.4%, an Activity (COLO 205 [20]) of 25% and a viability at 1 µM (COLO 205 [21]) of 14%. It also gave an Activity (COLO 205 [22]) of 7.41%, an Activity (COLO 205 [23]) of 64.7% and an Activity (COLO 205 [24]) of 13.9%. It also gave an Activity (COLO 205 [25]) of 51.4%, an Activity (COLO 205 [26]) of 38.3% and an Activity (COLO 205 [27]) of 6.2%. For the same compound, the Activity (COLO 205 [28]) was “Active” and the IC50 (COLO 205 [7]) was 0.042 µM.
